The test deals with T1, aryl hydrocarbon receptor (AHR) (Homo sapiens, UniProt P35869).
T1 construct: human AHR in liver cytosol of mice expressing human AHR; also HepG2 (40/6) cells
T1 sequence (P35869 11-848): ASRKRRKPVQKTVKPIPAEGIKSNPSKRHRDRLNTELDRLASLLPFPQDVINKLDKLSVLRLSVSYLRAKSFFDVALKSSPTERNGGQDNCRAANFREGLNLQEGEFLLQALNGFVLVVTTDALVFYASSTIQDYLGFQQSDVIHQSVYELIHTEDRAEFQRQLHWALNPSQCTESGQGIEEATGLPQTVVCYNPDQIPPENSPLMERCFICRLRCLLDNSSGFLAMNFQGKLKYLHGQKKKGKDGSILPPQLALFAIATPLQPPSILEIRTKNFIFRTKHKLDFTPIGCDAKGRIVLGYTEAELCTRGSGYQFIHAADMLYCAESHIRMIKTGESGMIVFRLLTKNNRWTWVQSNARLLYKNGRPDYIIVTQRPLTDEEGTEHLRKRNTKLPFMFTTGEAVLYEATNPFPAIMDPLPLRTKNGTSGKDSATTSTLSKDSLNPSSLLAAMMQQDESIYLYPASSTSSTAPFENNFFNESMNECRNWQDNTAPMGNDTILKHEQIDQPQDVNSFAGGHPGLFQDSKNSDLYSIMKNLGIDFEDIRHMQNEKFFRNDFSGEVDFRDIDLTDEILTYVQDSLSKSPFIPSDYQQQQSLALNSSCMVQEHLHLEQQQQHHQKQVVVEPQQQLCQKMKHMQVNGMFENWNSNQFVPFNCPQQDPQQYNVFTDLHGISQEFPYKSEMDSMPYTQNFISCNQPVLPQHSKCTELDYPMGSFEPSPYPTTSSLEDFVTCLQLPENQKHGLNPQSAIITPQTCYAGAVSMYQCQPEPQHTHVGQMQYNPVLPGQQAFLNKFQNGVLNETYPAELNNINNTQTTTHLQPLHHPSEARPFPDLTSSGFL
Briefly: competition with […] photoaffinity ligand (PAL) in human AHR-expressing hepatic cytosol. Type of test: binding.

Structures are written as SMILES.

As for `O=c1oc2cc(O)ccc2c2ccc(O)cc12` [UroA, Urolithin A], the IC50 – broadly, the midpoint of a concentration-inhibition curve – was determined as 800 nM.

The values above are taken from article PMC6315438 (Metabolites, 2018).
